Source: publication PMC9816206 (Archives of Toxicology, 2022)

What was measured:
[1] = system: cell cycle regulation and DNA damage repair; settings: transcriptomics approach; ref Abdelfatah et al. [2022]; cited from earlier work
[2] = system: HeLa H2B-GFP cells co-cultured with HepG2 cells; assay: Micronucleus assay in co-culture after pretreatment with inhibitors of metabolic enzymes and efflux transporters; settings: then Las 10 µM, Rid 100 µM, vs no pretreatment
Description: Since the analysis was limited to HeLa H2B-GFP cells in these experiments, cytochalasin B (at final concentration 3 µg/ml) exposure was 20 h.
Transmembrane transporters may enhance or decrease PA-mediated effects. […] The idea was that metabolites formed in hepatocytes may not reach HeLa H2B-GFP cells to the same extent. […] Then, the co-culture was exposed to PAs for 28 h, followed by 3 µg/ml cytochalasin B for 20 h.

MRP2 efflux transporter = biological target: T1, MRP2 efflux transporter (Homo sapiens, UniProt Q92887); assay: MRP2 efflux transporter activity, intracellular calcein fluorescence retention; type: cell-based; settings: HepG2 cells; calcein substrate; benzbromarone 10 µM; data not shown
T1 construct: endogenous in cells; host or cells: HepG2

HSEC = settings: PAs metabolized by HepaRG human hepatocyte cells in Transwell co-culture; ref Lu et al. [2019]; cited from earlier work
HepG2 cells [3] = assay: Analysis of mitotic figures, HepG2 cells cultured alone; type: cell-based, human; settings: 28 h; Las 10 µM, Rid 100 µM, Ep 160 µM; vs DMSO solvent control
Description: (§1) The characterization of mitotic cells in fixed cell preparations was performed as described in Baudoin and Cimini [(2018]). […] Thereafter, cells were harvested and the microscopic slides prepared as described for micronucleus analysis. The mitotic index (MI; % cells in mitosis) was assessed by counting and adding up the number of cells in the mitotic stages prophase, metaphase, anaphase and telophase in 1000 cells.
(§2) Disturbed mitoses were defined as mitotic figures deviating from the typical appearance of mitoses and were assessed in 300 mitotic cells per slide. We classified the mitotic disturbances into the following categories (Figs. 2, 3):
(§3) Metaphase: no metaphase plate arrangement, non-congression of individual chromosomes to the metaphase plate, multipolar (tripolar and more than tripolar) arrangement of chromosomes and elongated chromosomes/chromatids.
(§4) Anaphase: bridges, lagging chromosome(s), combination of bridges and lagging chromosome, and multipolar (tripolar and more than tripolar) arrangement of chromosomes.
(§5) Telophase: same analysis as for anaphase cells.
(§6) If a cell harboured more than one type of disturbance, it was added to each category (e.g. multipolar, lagging chromosome(s) and bridges).

DNA [4] = system: DNA; design: method as in Hadi et al. [2021]; settings: ref Hadi et al. [2021]; cited from earlier work
HeLa H2B-GFP cells [5] = assay: Cytokinesis-block micronucleus (CBMN) assay, HeLa H2B-GFP cells cultured alone; type: cell-based, human; settings: lasiocarpine 10 µM, riddelliine 100 µM, europine 320 µM; 28 h; vs solvent control (DMSO); n = 3
Description: (§7) The study of genomic damage was performed in a six-well plate in which one well consisted of only HepG2 cells, one well of only HeLa H2B-GFP cells and further wells containing both cell types in co-culture. To achieve this, 190, 000 of HeLa H2B-GFP cells per 3ml, 150,000 of HepG2 cells per 3ml and 40,000 HeLa H2B-GFP plus 150,000 HepG2 for the co-culture per 3ml were seeded and incubated overnight. As culture medium, the HepG2 cell medium was used for all cells. […] At this point, slides were coded and for each test sample micronuclei were scored in 1000 binucleated HeLa H2B-GFP cells in the co-culture and HeLa H2B-GFP cells, and in 1000 binucleated HepG2 cells in the HepG2 cell culture, at 400-fold magnification with an Eclipse 55i fluorescence microscope using a fluorescein isothiocyanate (FITC) filter (Nikon GmbH, Japan). The numbers of mononucleated cells (MN), binucleated cells (BN), trinucleated cells (TriN), and tetranucleated cells (TetraN) in 1000 cells were also scored. The cytokinesis-block proliferation index (CBPI) was calculated from that as a criterion for determining the cytotoxic effect using the following formula: CBPI=1×MN+2×BN+3×TriN+4×TetraN/MN+BN+TriN+TetraN.

[6] = system: HeLa H2B-GFP cells co-cultured with HepG2 cells; assay: Analysis of mitotic figures, HeLa H2B-GFP cells of the co-culture; type: cell-based, human; settings: for mitotic index in co-culture / arrest in metaphase of mitosis (detectable as elevated mitotic index): 28 h, Las 10 µM, Rid 100 µM, Ep 160 µM; for mitotic index in co-culture: vs DMSO solvent control; for arrest in metaphase of mitosis (detectable as elevated mitotic index): vincristine 10 ng/ml (positive control)
Description: as §1, §2, §3, §4, §5, §6

HepG2 cells [7] = assay: Cytokinesis-block micronucleus (CBMN) assay, HepG2 cells cultured alone; type: cell-based, human; settings: lasiocarpine 10 µM, riddelliine 100 µM, europine 320 µM; 28 h; vs solvent control (DMSO); n = 3
Description: as §7

[8] = system: HeLa H2B-GFP cells co-cultured with HepG2 cells; assay: Cytokinesis-block micronucleus (CBMN) assay, HeLa H2B-GFP cells scored in co-culture with HepG2; type: cell-based, human; settings: lasiocarpine 10 µM, riddelliine 100 µM, europine 320 µM; 28 h; vs solvent control (DMSO); n = 3
Description: as §7

HeLa H2B-GFP cells [9] = assay: Analysis of mitotic figures, HeLa H2B-GFP cells cultured alone; type: cell-based, human; settings: 28 h; Las 10 µM, Rid 100 µM, Ep 160 µM; vs DMSO solvent control
Description: as §1, §2, §3, §4, §5, §6

V79 hamster cells = settings: metabolically incompetent V79 cells with or without human CYP450-3A4; ref Ebmeyer et al. [(2019]); cited from earlier work
DNA [10] = system: DNA; design: method as in Hincks et al. [1991]; settings: ref Hincks et al. [1991]; cited from earlier work

T1 sequence (Q92887 whole entry): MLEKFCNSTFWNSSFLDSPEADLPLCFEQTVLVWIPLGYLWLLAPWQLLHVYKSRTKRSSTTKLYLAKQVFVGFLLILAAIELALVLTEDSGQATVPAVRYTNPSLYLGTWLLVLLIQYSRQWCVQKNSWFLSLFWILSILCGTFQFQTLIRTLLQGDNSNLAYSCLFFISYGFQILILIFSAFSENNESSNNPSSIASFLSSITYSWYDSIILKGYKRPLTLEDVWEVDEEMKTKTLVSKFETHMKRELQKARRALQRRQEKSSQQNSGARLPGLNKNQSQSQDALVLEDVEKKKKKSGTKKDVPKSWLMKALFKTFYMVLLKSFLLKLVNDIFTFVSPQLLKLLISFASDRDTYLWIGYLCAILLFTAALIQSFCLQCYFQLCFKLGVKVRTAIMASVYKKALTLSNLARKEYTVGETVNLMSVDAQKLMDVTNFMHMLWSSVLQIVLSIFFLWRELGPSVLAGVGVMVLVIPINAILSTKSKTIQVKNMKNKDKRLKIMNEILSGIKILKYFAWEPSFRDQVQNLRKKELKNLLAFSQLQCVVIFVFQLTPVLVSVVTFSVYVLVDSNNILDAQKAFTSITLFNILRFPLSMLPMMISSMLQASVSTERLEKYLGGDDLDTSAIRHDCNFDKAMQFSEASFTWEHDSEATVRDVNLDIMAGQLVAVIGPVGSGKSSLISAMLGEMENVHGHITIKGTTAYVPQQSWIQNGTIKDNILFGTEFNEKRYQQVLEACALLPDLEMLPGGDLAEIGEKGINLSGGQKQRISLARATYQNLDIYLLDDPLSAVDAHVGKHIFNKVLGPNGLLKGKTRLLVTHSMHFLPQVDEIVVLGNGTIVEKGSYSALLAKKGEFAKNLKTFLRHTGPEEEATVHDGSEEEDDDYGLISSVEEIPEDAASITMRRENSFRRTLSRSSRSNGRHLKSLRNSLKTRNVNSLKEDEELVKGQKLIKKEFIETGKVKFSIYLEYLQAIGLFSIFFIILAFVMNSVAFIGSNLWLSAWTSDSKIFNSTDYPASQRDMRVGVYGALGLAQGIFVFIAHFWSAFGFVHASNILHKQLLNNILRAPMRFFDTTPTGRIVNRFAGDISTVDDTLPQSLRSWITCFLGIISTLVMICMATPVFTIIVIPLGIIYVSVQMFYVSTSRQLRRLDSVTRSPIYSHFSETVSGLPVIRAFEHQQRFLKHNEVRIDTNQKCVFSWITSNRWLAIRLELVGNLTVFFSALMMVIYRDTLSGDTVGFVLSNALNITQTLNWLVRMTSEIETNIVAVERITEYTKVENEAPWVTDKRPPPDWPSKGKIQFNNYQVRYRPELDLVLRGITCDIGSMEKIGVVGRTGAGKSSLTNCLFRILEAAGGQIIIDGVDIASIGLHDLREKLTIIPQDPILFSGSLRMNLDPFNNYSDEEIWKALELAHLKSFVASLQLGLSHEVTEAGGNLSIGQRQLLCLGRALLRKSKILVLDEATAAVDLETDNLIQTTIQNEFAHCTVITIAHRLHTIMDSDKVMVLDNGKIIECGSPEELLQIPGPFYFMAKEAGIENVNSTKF

## CC(C)[C@](O)(C(=O)OCC1=CCN2CC[C@@H](O)[C@@H]12)[C@@H](C)O (stereo in doubt) [lycopsamine]
[1]
  interference with cell cycle regulation and DNA damage repair: interfered with cell cycle regulation and DNA damage repair

## CCc1oc2ccccc2c1C(=O)c1cc(Br)c(O)c(Br)c1 [benzbromarone]
[2]; verapamil 50 µM, benzbromarone 10 µM or both, 24 h pretreatment, Ep 160 µM for 28 h
  lasiocarpine-, riddelliine- and europine-induced micronucleus formation in HeLa H2B-GFP cells after efflux transporter inhibitor pretreatment: significantly reduced
MRP2 efflux transporter
  activity of MRP2 efflux transporter (calcein fluorescence retention): significantly reduced

## C=C/C1=C/[C@H](C)[C@](C)(OC(C)=O)C(=O)OC/C2=C/CN(C)CC[C@@H](OC1=O)C2=O [clivorine]
HSEC
  cytotoxicity in HSEC: concentration-dependent cytotoxicity

## C/C=C(/C)C(=O)O[C@@H]1CCN2CC=C(COC(=O)[C@@](O)([C@H](C)O)C(C)(C)O)[C@H]12 [echimidine]
[1]
  interference with cell cycle regulation and DNA damage repair: interfered with cell cycle regulation and DNA damage repair

## COC(C)C(O)(C(=O)OCC1=CCN2CCC(O)C12)C(C)(C)O (centres unmarked) [europine]
HepG2 cells [3]
  mitotic index in HepG2 cells: significantly decreased
DNA [4]
  induction of DNA cross-links: did not
HeLa H2B-GFP cells [5]
  micronucleus formation in HeLa H2B-GFP cells cultured alone: not if cultured alone
[6]
  mitotic index in co-culture: significantly decreased
  arrest in metaphase of mitosis (detectable as elevated mitotic index): not
[6]; in 300 mitotic cells, Ep 160 µM compared with Las 10 µM and Rid 100 µM, concentrations causing a similar number of micronuclei
  ana-/telophase bridges: less ana-/telophase bridges than the two diesters
HepG2 cells [7]
  micronucleus induction in HepG2 cells cultured alone: induced micronuclei
[8]
  micronucleus formation in HeLa H2B-GFP cells in the co-culture: induced micronucleus formation significantly
HeLa H2B-GFP cells [9]
  mitotic index in HeLa H2B-GFP cells cultured alone: no change

## CC(=O)N1CCN(c2ccc(OCC3COC(Cn4ccnc4)(c4ccc(Cl)cc4Cl)O3)cc2)CC1 (centres unmarked) [ketoconazole]
[2]; ketoconazole 1 µM 24 h pretreatment, Ep 320 µM for 28 h
  lasiocarpine-, riddelliine- and europine-induced micronucleus formation after CYP450-3A4 inhibitor pretreatment: significantly reduced

## C/C=C(/C)C(=O)O[C@H]1CCN2CC=C(COC(=O)[C@@](O)([C@H](C)OC)C(C)(C)O)[C@H]12 [lasiocarpine]
[1]
  interference with cell cycle regulation and DNA damage repair: interfered with cell cycle regulation and DNA damage repair
V79 hamster cells
  genotoxicity in V79 hamster cells: only genotoxic in metabolically incompetent V79 hamster cells if they had been genetically engineered to harbour human CYP450-3A4

## C[C@H]1C(=O)O[C@@H]2CCN3CC=C(COC(=O)[C@](C)(O)[C@]1(C)O)[C@H]23 [monocrotaline]
[1]
  interference with cell cycle regulation and DNA damage repair: interfered with cell cycle regulation and DNA damage repair
HSEC
  cytotoxicity in HSEC: concentration-dependent cytotoxicity

## C=C1C/C(=C/C)C(=O)O[C@@H]2CCN3CC=C(COC(=O)[C@@]1(O)CO)[C@H]23 [riddelliine]
[1]
  interference with cell cycle regulation and DNA damage repair: interfered with cell cycle regulation and DNA damage repair
HepG2 cells [3]
  mitotic index in HepG2 cells: did not cause significant alterations
HeLa H2B-GFP cells [5]
  micronucleus formation in HeLa H2B-GFP cells cultured alone: not if cultured alone
DNA [10]
  DNA cross-linker potency: more potent DNA cross-linker than heliosupine
[6]
  mitotic index in co-culture: did not cause significant alterations
  arrest in metaphase of mitosis (detectable as elevated mitotic index): not
HepG2 cells [7]
  micronucleus induction in HepG2 cells cultured alone: induced micronuclei
[8]
  micronucleus formation in HeLa H2B-GFP cells in the co-culture: induced micronucleus formation significantly
HeLa H2B-GFP cells [9]
  mitotic index in HeLa H2B-GFP cells cultured alone: did not cause significant alterations

## CC[C@]1(O)C[C@H]2CN(CCc3c([nH]c4ccccc34)[C@@](C(=O)OC)(c3cc4c(cc3OC)N(C=O)[C@H]3[C@@](O)(C(=O)OC)[C@H](OC(C)=O)[C@]5(CC)C=CCN6CC[C@]43[C@@H]65)C2)C1 [vincristine, reference compound]
[6]
  arrest in metaphase of mitosis (detectable as elevated mitotic index): arrest in metaphase of mitosis
